ChEMBL document CHEMBL1154299, “Human liver microsomal metabolism of (+)-discodermolide” (J Nat Prod, 2009)

Assays:
Type in all cases: ADME
Liver microsomes [1] = assay: Metabolic stability in human liver microsome at 10 uM in the presence of NADPH assessed as level of metabolites after 1 mins by LC-MS analysis
Liver microsomes [2] = assay: Metabolic stability in heat inactivated human liver microsome at 10 uM after 15 mins in the presence of NADPH by LC-MS analysis; settings: 0.25 h
Liver microsomes [3] = assay: Metabolic stability in human liver microsome at 10 uM after 15 mins in the absence of NADPH by LC-MS analysis; settings: 0.25 h
Liver microsomes [4] = assay: Metabolic stability in human liver microsome at 10 uM in the presence of NADPH assessed as level of metabolites after 5 mins by LC-MS analysis

C=C/C=C\[C@H](C)[C@H](OC(N)=O)[C@@H](C)[C@H](O)[C@@H](C)C/C(C)=C\[C@H](C)[C@@H](O)[C@@H](C)/C=C\[C@@H](O)C[C@@H]1OC(=O)[C@H](C)[C@@H](O)[C@H]1C [DISERMOLIDE]
Stability (Liver microsomes [1]): Unstable | Stability (Liver microsomes [2]): Stable | Stability (Liver microsomes [3]): Stable | Stability (Liver microsomes [4]): Unstable
